Results published in US9758485B2, “Compounds for controlling arthropods” (priority 2013, dated 2017).

System: not listed separately
Assay: logP determination by HPLC on a reversed-phase column (C18), EEC Directive 79/831 Annex V.A8
Type: physicochemical
Conditions: HPLC-MS method a), Table I-T3

SMILES | logP^a)
CCc1cc(C(F)(C(F)(F)F)C(F)(F)F)cc(Cl)c1-n1cc(-c2ccc(Cl)c(C(=O)NC3(C#N)CC3)c2)cn1 [I-T3-71] | 4.5
CCc1cc(C(F)(C(F)(F)F)C(F)(F)F)cc(Cl)c1-n1cc(-c2ccc(Cl)c(C(=O)NC3CC3)c2)cn1 [I-T3-72] | 4.6
CCc1cc(C(F)(F)C(F)(F)F)cc(C)c1-n1cc(-c2ccc(Cl)c(C(=O)NC3CC3)c2)cn1 [I-T3-81] | 4.3

Same assay, conditions: HPLC-MS, reversed-phase column (C18)

SMILES | log P
Cc1ncc(-c2cnn(-c3c(Cl)cc(C(F)(C(F)(F)F)C(F)(F)F)cc3Cl)c2)cc1C(=O)NC1CC1 [I-T3-91] | 3.3
CCc1cc(C(F)(C(F)(F)F)C(F)(F)F)ccc1-n1cc(-c2cnc(Cl)c(C(=O)NC3CC3)c2)cn1 [I-T3-104] | 4.2

System: Rhipicephalus sanguineus
Assay: Rhipicephalus sanguineus - in vitro contact tests with adult brown dog ticks
Type: in vivo
Conditions: application rate 5 μg/cm^2, after 48 h (dead or moribund)
Method: Rhipicephalus sanguineus—In Vitro Contact Tests with Adult Brown Dog Ticks
For the coating of the test tubes, 9 mg of active ingredient are first dissolved in 1 ml of acetone p.a. and then diluted to the desired concentration with acetone p.a. 250 μl of the solution are distributed homogeneously on the inner walls and base of a 25 ml test tube by turning and rocking on an orbital shaker (rocking rotation at 30 rpm for 2 h). With 900 ppm active ingredient solution and internal surface 44.7 cm^2, given homogeneous distribution, an area-based dose of 5 μg/cm^2 is achieved.
After the solvent has evaporated off, the tubes are populated with 5-10 adult dog ticks (Rhipicephalus sanguineus), sealed with a perforated plastic lid and incubated in a horizontal position in the dark at room temperature and ambient humidity. After 48 h, efficacy is determined. To this end, the ticks are knocked to the floor of the tube and incubated on a hotplate at 45-50° C. for not more than 5 min. Ticks which remain motionless on the floor or move in such an uncoordinated manner that they are unable to deliberately avoid the heat by climbing upwards are considered to be dead or moribund.
An efficacy of 100% means that all the ticks were dead or moribund. 0% efficacy means that none of the ticks had been harmed.

SMILES | efficacy [%]
CCc1cc(C(F)(C(F)(F)F)C(F)(F)F)cc(Cl)c1-n1cc(-c2ccc(Cl)c(C(=O)NC3(C#N)CC3)c2)cn1 [I-T3-71] | 100
CCc1cc(C(F)(C(F)(F)F)C(F)(F)F)cc(Cl)c1-n1cc(-c2ccc(Cl)c(C(=O)NC3CC3)c2)cn1 [I-T3-72] | 100
CCc1cc(C(F)(F)C(F)(F)F)cc(C)c1-n1cc(-c2ccc(Cl)c(C(=O)NC3CC3)c2)cn1 [I-T3-81] | 100
Cc1ncc(-c2cnn(-c3c(Cl)cc(C(F)(C(F)(F)F)C(F)(F)F)cc3Cl)c2)cc1C(=O)NC1CC1 [I-T3-91] | 100
CCc1cc(C(F)(C(F)(F)F)C(F)(F)F)ccc1-n1cc(-c2cnc(Cl)c(C(=O)NC3CC3)c2)cn1 [I-T3-104] | 100

System: Ctenocephalides felis
Assay: Ctenocephalides felis - in vitro contact tests with adult cat fleas
Type: in vivo
Conditions: application rate 5 μg/cm^2 (=500 g/ha), after 48 h (dead or moribund)
Outline: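 Acetone solution coated on test-tube inner walls (900 ppm gives 5 μg/cm^2). After drying, 5-10 adult cat fleas added and kept horizontal at room temperature and ambient humidity. At 48 h fleas knocked down; motionless or uncoordinated ones counted dead/moribund, giving % efficacy.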

SMILES | efficacy [%]
CCc1cc(C(F)(C(F)(F)F)C(F)(F)F)cc(Cl)c1-n1cc(-c2ccc(Cl)c(C(=O)NC3(C#N)CC3)c2)cn1 [I-T3-71] | 100
CCc1cc(C(F)(C(F)(F)F)C(F)(F)F)cc(Cl)c1-n1cc(-c2ccc(Cl)c(C(=O)NC3CC3)c2)cn1 [I-T3-72] | 100
CCc1cc(C(F)(F)C(F)(F)F)cc(C)c1-n1cc(-c2ccc(Cl)c(C(=O)NC3CC3)c2)cn1 [I-T3-81] | 100
Cc1ncc(-c2cnn(-c3c(Cl)cc(C(F)(C(F)(F)F)C(F)(F)F)cc3Cl)c2)cc1C(=O)NC1CC1 [I-T3-91] | 100

System: Amblyomma hebraeum
Assay: Amblyomma hebraeum test (tick nymphs, immersion)
Type: in vivo
Conditions: application rate 100 ppm; tick nymphs immersed for one minute; kill after 42 days
Method: Solvent: dimethyl sulphoxide
To produce an appropriate active ingredient formulation, 10 mg of active ingredient are mixed with 0.5 ml of dimethyl sulphoxide, and the concentrate is diluted with water to the desired concentration.
Tick nymphs (Amblyomma hebraeum) are placed into perforated plastic beakers and immersed in the desired concentration for one minute. The ticks are transferred on filter paper into a Petri dish and stored in a climate-controlled cabinet.
After 42 days, the kill in % is determined. 100% means that all of the ticks have been killed; 0% means that none of the ticks have been killed.

SMILES | efficacy [%]
CCc1cc(C(F)(C(F)(F)F)C(F)(F)F)cc(Cl)c1-n1cc(-c2ccc(Cl)c(C(=O)NC3(C#N)CC3)c2)cn1 [I-T3-71] | 100
CCc1cc(C(F)(C(F)(F)F)C(F)(F)F)cc(Cl)c1-n1cc(-c2ccc(Cl)c(C(=O)NC3CC3)c2)cn1 [I-T3-72] | 100
CCc1cc(C(F)(F)C(F)(F)F)cc(C)c1-n1cc(-c2ccc(Cl)c(C(=O)NC3CC3)c2)cn1 [I-T3-81] | 100
Cc1ncc(-c2cnn(-c3c(Cl)cc(C(F)(C(F)(F)F)C(F)(F)F)cc3Cl)c2)cc1C(=O)NC1CC1 [I-T3-91] | 100
CCc1cc(C(F)(C(F)(F)F)C(F)(F)F)ccc1-n1cc(-c2cnc(Cl)c(C(=O)NC3CC3)c2)cn1 [I-T3-104] | 100

System: Boophilus microplus
Assay: Boophilus microplus - injection test
Type: in vivo
Conditions: application rate 20 μg/animal; injected into engorged adult female ticks; laying of fertile eggs, after 7 days
Outline: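 DMSO formulation, 1 μl intra-abdominal injection, n=5 engorged adult females; climate-controlled room; score fertile eggs d7, unclear eggs held until larval hatch (~42 d); % efficacy, 100% = no fertile eggs.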

SMILES | efficacy [%]
CCc1cc(C(F)(C(F)(F)F)C(F)(F)F)cc(Cl)c1-n1cc(-c2ccc(Cl)c(C(=O)NC3(C#N)CC3)c2)cn1 [I-T3-71] | 100
CCc1cc(C(F)(C(F)(F)F)C(F)(F)F)cc(Cl)c1-n1cc(-c2ccc(Cl)c(C(=O)NC3CC3)c2)cn1 [I-T3-72] | 100
CCc1cc(C(F)(F)C(F)(F)F)cc(C)c1-n1cc(-c2ccc(Cl)c(C(=O)NC3CC3)c2)cn1 [I-T3-81] | 100
Cc1ncc(-c2cnn(-c3c(Cl)cc(C(F)(C(F)(F)F)C(F)(F)F)cc3Cl)c2)cc1C(=O)NC1CC1 [I-T3-91] | 100
CCc1cc(C(F)(C(F)(F)F)C(F)(F)F)ccc1-n1cc(-c2cnc(Cl)c(C(=O)NC3CC3)c2)cn1 [I-T3-104] | 100

System: Boophilus microplus Parkhurst strain, SP-resistant
Assay: Boophilus microplus - dip test
Type: in vivo
Conditions: application rate 100 ppm; dip of engorged adult female ticks; laying of fertile eggs, after 7 days
Outline: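 Adult engorged females of SP-resistant Parkhurst strain (8–10 per tube) fully immersed in compound diluted in water from a DMSO solution. Ticks then kept on filter discs in a climate-controlled room; efficacy scored from fertile egg laying at 7 days, with unclear eggs held about 42 days until hatch (100% = no fertile eggs).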

SMILES | efficacy [%]
CCc1cc(C(F)(C(F)(F)F)C(F)(F)F)cc(Cl)c1-n1cc(-c2ccc(Cl)c(C(=O)NC3(C#N)CC3)c2)cn1 [I-T3-71] | 100
CCc1cc(C(F)(C(F)(F)F)C(F)(F)F)cc(Cl)c1-n1cc(-c2ccc(Cl)c(C(=O)NC3CC3)c2)cn1 [I-T3-72] | 100
CCc1cc(C(F)(F)C(F)(F)F)cc(C)c1-n1cc(-c2ccc(Cl)c(C(=O)NC3CC3)c2)cn1 [I-T3-81] | 100
Cc1ncc(-c2cnn(-c3c(Cl)cc(C(F)(C(F)(F)F)C(F)(F)F)cc3Cl)c2)cc1C(=O)NC1CC1 [I-T3-91] | 100
CCc1cc(C(F)(C(F)(F)F)C(F)(F)F)ccc1-n1cc(-c2cnc(Cl)c(C(=O)NC3CC3)c2)cn1 [I-T3-104] | 100

System: Ctenocephalides felis
Assay: Ctenocephalides felis - oral test
Type: in vivo
Conditions: application rate 100 ppm in citrated cattle blood; adult fleas; kill after 2 days
Outline: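 Mortality in % was recorded 2 days after about 20 unfed adult cat fleas were allowed to imbibe citrated cattle blood containing the active ingredient through a parafilm membrane. The compound was first taken up in DMSO and then diluted with the blood to the desired concentration.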

SMILES | efficacy [%]
CCc1cc(C(F)(C(F)(F)F)C(F)(F)F)cc(Cl)c1-n1cc(-c2ccc(Cl)c(C(=O)NC3(C#N)CC3)c2)cn1 [I-T3-71] | 100
CCc1cc(C(F)(C(F)(F)F)C(F)(F)F)cc(Cl)c1-n1cc(-c2ccc(Cl)c(C(=O)NC3CC3)c2)cn1 [I-T3-72] | 100
CCc1cc(C(F)(F)C(F)(F)F)cc(C)c1-n1cc(-c2ccc(Cl)c(C(=O)NC3CC3)c2)cn1 [I-T3-81] | 100
Cc1ncc(-c2cnn(-c3c(Cl)cc(C(F)(C(F)(F)F)C(F)(F)F)cc3Cl)c2)cc1C(=O)NC1CC1 [I-T3-91] | 100
CCc1cc(C(F)(C(F)(F)F)C(F)(F)F)ccc1-n1cc(-c2cnc(Cl)c(C(=O)NC3CC3)c2)cn1 [I-T3-104] | 100

System: Lucilia cuprina
Assay: Lucilia cuprina test
Type: in vivo
Conditions: application rate 100 ppm; L1 larvae in minced horsemeat; kill after 2 days
Outline: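 About 20 L1 larvae placed on minced horsemeat treated with compound, formulated in DMSO and diluted with water to test concentration. Kill in % scored after 2 days (100% = all larvae dead, 0% = none).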

SMILES | efficacy [%]
CCc1cc(C(F)(C(F)(F)F)C(F)(F)F)cc(Cl)c1-n1cc(-c2ccc(Cl)c(C(=O)NC3(C#N)CC3)c2)cn1 [I-T3-71] | 100
CCc1cc(C(F)(C(F)(F)F)C(F)(F)F)cc(Cl)c1-n1cc(-c2ccc(Cl)c(C(=O)NC3CC3)c2)cn1 [I-T3-72] | 100
CCc1cc(C(F)(F)C(F)(F)F)cc(C)c1-n1cc(-c2ccc(Cl)c(C(=O)NC3CC3)c2)cn1 [I-T3-81] | 100
Cc1ncc(-c2cnn(-c3c(Cl)cc(C(F)(C(F)(F)F)C(F)(F)F)cc3Cl)c2)cc1C(=O)NC1CC1 [I-T3-91] | 100
CCc1cc(C(F)(C(F)(F)F)C(F)(F)F)ccc1-n1cc(-c2cnc(Cl)c(C(=O)NC3CC3)c2)cn1 [I-T3-104] | 100

System: Musca domestica
Assay: Musca domestica test
Type: in vivo
Conditions: application rate 100 ppm; adult houseflies; kill after 2 days
Outline: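 Percent kill of adult houseflies is recorded 2 days after exposure, where 100% denotes all flies dead and 0% none. Flies (10 per vessel) feed from a sponge carrying sugar solution and the aqueous-diluted DMSO formulation.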

SMILES | efficacy [%]
CCc1cc(C(F)(C(F)(F)F)C(F)(F)F)cc(Cl)c1-n1cc(-c2ccc(Cl)c(C(=O)NC3(C#N)CC3)c2)cn1 [I-T3-71] | 100
CCc1cc(C(F)(C(F)(F)F)C(F)(F)F)cc(Cl)c1-n1cc(-c2ccc(Cl)c(C(=O)NC3CC3)c2)cn1 [I-T3-72] | 100
CCc1cc(C(F)(F)C(F)(F)F)cc(C)c1-n1cc(-c2ccc(Cl)c(C(=O)NC3CC3)c2)cn1 [I-T3-81] | 90
Cc1ncc(-c2cnn(-c3c(Cl)cc(C(F)(C(F)(F)F)C(F)(F)F)cc3Cl)c2)cc1C(=O)NC1CC1 [I-T3-91] | 100
CCc1cc(C(F)(C(F)(F)F)C(F)(F)F)ccc1-n1cc(-c2cnc(Cl)c(C(=O)NC3CC3)c2)cn1 [I-T3-104] | 100
